Experimental findings from patent US20150313824A1, “SKIN CARE COMPOSITION” (Conopco, Inc., d/b/a UNILEVER, priority 2013, published 2015) are described below.

The first assay relates to EA.Hy926 cells. Nature of the assay: Measurement of intracellular nitric oxide using flow-cytometry (DAF FM-DA). It is filed as cell-based, human. The conditions noted are these: summary of the data in Table-1. The method, then:
The cultured human endothelial cell line EA.Hy926 cells were procured from American Type Culture Collection ([…]) and were cultured in DMEM (Sigma) supplemented with 2 mM L-glutamine, 100 U/ml penicillin, 100 μg/ml streptomycin and 10% vol/vol FBS (Gibco, Invitrogen). Cells were cultured at 37° C. in 95% humidified air with 5% CO2. After attaining 70-80% confluence, the cells were sub-cultured by trypsinization (0.25% Tryp-EDTA, for 2-3 min). For experimental purpose, cells were seeded onto 24 well tissue culture plates (CLS3524 Sigma). […] Measurement of Intracellular Nitric Oxide Using Flow-Cytometry Experimental Flow: […] EAHy926 (5×10^5) cells were seed into 24 well tissue culture plate and allowed to adhere for 12-16 hrs. 2. After adherence, cells were treated with or without 4.41 μg/ml (10 μM) folic acid and incubated for 24 hrs in DMEM without FBS. 3. The cells in 24 well tissue culture plates were loaded with DAF FM-DA (1 μM) for 30 min, washed twice with serum free medium. 4. Subsequently, cells were stimulated with different concentration of EGCG for 30 mins and washed twice with serum free medium. 5. The stimulated cells were trypsinized with 0.25% Trypsin-EDTA and fixed with 2% PFA for 15 min. 6. The suspension of cells were acquired using flow-cytometry. A population of 10,000 cells were gated and segregated based on their relative fluorescence intensities using FACS Calibur (BD; SanDiego). The mean yield of two distinct populations was measured and compared with the respective population in untreated cells. The data on the Nitric Oxide activity is summarized in Table-1 for the various compositions which may be […] catechins (EGCG) alone at various concentrations or folic acid alone or EGCG in combination with folic acid.
Turning to `O=C(O[C@@H]1Cc2c(O)cc(O)cc2O[C@@H]1c1cc(O)c(O)c(O)c1)c1cc(O)c(O)c(O)c1` [EGCG, (−)-epigallocatechin gallate], the “NO activity, effect of increasing concentration or of combination (in words)” value is “increases NO activity till an EGCG concentration of about 11 μg and thereafter the NO activity decreases”.

The same assay, now with this note: with or without folic acid pretreatment 24 hrs, then EGCG stimulation 30 mins, DAF FM-DA fluorescence compared with untreated cells (1.0 = no increase over untreated sample).
As to `O=C(O[C@@H]1Cc2c(O)cc(O)cc2O[C@@H]1c1cc(O)c(O)c(O)c1)c1cc(O)c(O)c(O)c1` [Example 6, EGCG], the NO activity came out at 2.32.
Same read-out and setting: then `O=C(O[C@@H]1Cc2c(O)cc(O)cc2O[C@@H]1c1cc(O)c(O)c(O)c1)c1cc(O)c(O)c(O)c1` [Example 7, EGCG], with 1.64; and `O=C(O[C@@H]1Cc2c(O)cc(O)cc2O[C@@H]1c1cc(O)c(O)c(O)c1)c1cc(O)c(O)c(O)c1` [Example 8, EGCG], with 0.63; and `O=C(O[C@@H]1Cc2c(O)cc(O)cc2O[C@@H]1c1cc(O)c(O)c(O)c1)c1cc(O)c(O)c(O)c1` [Example 4, EGCG], with 3.75.
As to `O=C(O[C@@H]1Cc2c(O)cc(O)cc2O[C@@H]1c1cc(O)c(O)c(O)c1)c1cc(O)c(O)c(O)c1` [Example 3, EGCG], the NO activity was determined as 2.98.
Still for that read-out and setting: then `O=C(O[C@@H]1Cc2c(O)cc(O)cc2O[C@@H]1c1cc(O)c(O)c(O)c1)c1cc(O)c(O)c(O)c1` [Example 5, EGCG], with 3.58; and `O=C(O[C@@H]1Cc2c(O)cc(O)cc2O[C@@H]1c1cc(O)c(O)c(O)c1)c1cc(O)c(O)c(O)c1` [Example 2, EGCG], with 2.87.
